Assay results as given in ChEMBL document CHEMBL1124865, “Synthesis and biological evaluation of a series of parenteral 3'-quaternary ammonium cephalosporins” (J Med Chem, 1990).
≈ marks a conversion by molar mass, not a printed value.

Experiments:
Type in all cases: functional
[1] = system: Escherichia coli; assay: Antibacterial activity against Escherichia coli TEM
[2] = system: Klebsiella pneumoniae; assay: Antibacterial activity against Klebsiella pneumoniae X26
[3] = system: Staphylococcus aureus; assay: In vivo efficacy against Staphylococcus aureus infected mice treated at 1 hr and 5 hr post infection
[4] = system: Enterobacter cloacae; assay: Antibacterial activity against Enterobacter cloacae 265A; settings: Enterobacter cloacae; read-out: MIC
[5] = system: Escherichia coli; assay: Antibacterial activity against Escherichia coli EC14; settings: Escherichia coli; read-out: MIC
[6] = system: Enterobacter cloacae; assay: Antibacterial activity against Enterobacter cloacae EB5; settings: Enterobacter cloacae; read-out: MIC
[7] = system: Klebsiella pneumoniae; assay: microbe, parasite or virus in culture; settings: Klebsiella pneumoniae; read-out: MIC
Description: Antibacterial activity against Klebsiella pneumoniae 1082E

[8] = system: Pseudomonas aeruginosa; assay: Antibacterial activity against Pseudomonas aeruginosa X528; settings: Pseudomonas aeruginosa; read-out: MIC
[9] = system: Pseudomonas aeruginosa; assay: Antibacterial activity against Pseudomonas aeruginosa PS18; settings: Pseudomonas aeruginosa; read-out: MIC
[10] = system: Staphylococcus aureus; assay: Antibacterial activity against penicillin G resistance Staphylococcus aureus; settings: Staphylococcus aureus; read-out: MIC
[11] = system: Staphylococcus aureus; assay: Antibacterial activity against penicillin G susceptible Staphylococcus aureus; settings: Staphylococcus aureus; read-out: MIC
[12] = system: Streptococcus pneumoniae; assay: Antibacterial activity against Streptococcus pneumoniae; settings: Streptococcus pneumoniae; read-out: MIC
[13] = system: Serratia marcescens; assay: Antibacterial activity against Serratia marcescens SE3; settings: Serratia marcescens; read-out: MIC
[14] = system: Streptococcus pyogenes; assay: Antibacterial activity against Streptococcus pyogenes; settings: Streptococcus pyogenes; read-out: MIC
[15] = system: Enterococcus faecium; assay: Antibacterial activity against Enterococcus faecium; settings: Enterococcus faecium; read-out: MIC
[16] = Escherichia coli, read-out: MIC
[17] = Klebsiella pneumoniae, read-out: MIC

Row | Compound | MIC [1] | MIC [2] | ED50 [3] | MIC [4] | MIC [5] | MIC [6] | MIC [1, 16] | MIC [7] | MIC [2, 17] | MIC [8] | MIC [9] | MIC [10] | MIC [11] | MIC [12] | MIC [13] | MIC [14] | MIC [15]
1 | CO/N=C(\C(=O)N[C@@H]1C(=O)N2C(C(=O)[O-])=C(C[n+]3ccc(CC(=O)NO)cc3)CS[C@H]12)c1csc(N)n1 (stereo in doubt; 10) | 0.25 µg/mL (≈ 0.457 µM) | 0.03 µg/mL (≈ 0.0548 µM) | 7.2 mg/kg |  |  |  |  |  |  |  |  |  |  |  |  |  | 
2 | CO/N=C(\C(=O)N[C@@H]1C(=O)N2C(C(=O)O)=C(COC(C)=O)CS[C@H]12)c1csc(N)n1 [CEFOTAXIME] |  |  |  | 32 µg/mL (≈ 70.3 µM) | 0.03 µg/mL (≈ 0.0659 µM) | 0.25 µg/mL (≈ 0.549 µM) | 0.03 µg/mL (≈ 0.0659 µM) | 1 µg/mL (≈ 2.2 µM) | 0.008 µg/mL (≈ 0.0176 µM) | 32 µg/mL (≈ 70.3 µM) | 64 µg/mL (≈ 141 µM) | 16 µg/mL (≈ 35.1 µM) | 2 µg/mL (≈ 4.39 µM) | 0.015 µg/mL (≈ 0.0329 µM) | 0.25 µg/mL (≈ 0.549 µM) | 0.015 µg/mL (≈ 0.0329 µM) | > 128 µg/mL
3 | CO/N=C(\C(=O)N[C@@H]1C(=O)N2C(C(=O)[O-])=C(C[n+]3ccc4ccoc4c3)CS[C@H]12)c1csc(N)n1 |  |  |  | 8 µg/mL (≈ 15.5 µM) | 0.015 µg/mL (≈ 0.0292 µM) | 0.06 µg/mL (≈ 0.117 µM) | 0.015 µg/mL (≈ 0.0292 µM) | 4 µg/mL (≈ 7.77 µM) | 0.015 µg/mL (≈ 0.0292 µM) | 2 µg/mL (≈ 3.89 µM) | 8 µg/mL (≈ 15.5 µM) | 8 µg/mL (≈ 15.5 µM) | 1 µg/mL (≈ 1.94 µM) | 0.015 µg/mL (≈ 0.0292 µM) | 0.03 µg/mL (≈ 0.0583 µM) | < 0.008 µg/mL | > 128 µg/mL
4 | CO/N=C(\C(=O)N[C@@H]1C(=O)N2C(C(=O)[O-])=C(C[n+]3cscc3C)CS[C@H]12)c1csc(N)n1 |  |  |  | 8 µg/mL (≈ 16.2 µM) | 0.06 µg/mL (≈ 0.121 µM) | 0.25 µg/mL (≈ 0.505 µM) | 0.06 µg/mL (≈ 0.121 µM) | 8 µg/mL (≈ 16.2 µM) | 0.06 µg/mL (≈ 0.121 µM) | 16 µg/mL (≈ 32.4 µM) | 32 µg/mL (≈ 64.7 µM) | 4 µg/mL (≈ 8.09 µM) | 2 µg/mL (≈ 4.04 µM) | 0.03 µg/mL (≈ 0.0607 µM) | 0.25 µg/mL (≈ 0.505 µM) | 0.03 µg/mL (≈ 0.0607 µM) | 32 µg/mL (≈ 64.7 µM)
5 | C=Cc1sc[n+](CC2=C(C(=O)[O-])N3C(=O)[C@@H](NC(=O)/C(=N\OC)c4csc(N)n4)[C@H]3SC2)c1C |  |  |  | 4 µg/mL (≈ 7.68 µM) | 0.06 µg/mL (≈ 0.115 µM) | 0.25 µg/mL (≈ 0.48 µM) | 0.03 µg/mL (≈ 0.0576 µM) | 4 µg/mL (≈ 7.68 µM) | 0.06 µg/mL (≈ 0.115 µM) | 16 µg/mL (≈ 30.7 µM) | 32 µg/mL (≈ 61.5 µM) | 4 µg/mL (≈ 7.68 µM) | 2 µg/mL (≈ 3.84 µM) | 0.06 µg/mL (≈ 0.115 µM) | 0.25 µg/mL (≈ 0.48 µM) | 0.03 µg/mL (≈ 0.0576 µM) | 32 µg/mL (≈ 61.5 µM)
6 | CO/N=C(\C(=O)N[C@@H]1C(=O)N2C(C(=O)[O-])=C(C[n+]3csc4c3CCC4)CS[C@H]12)c1csc(N)n1 |  |  |  | 4 µg/mL (≈ 7.68 µM) | 0.06 µg/mL (≈ 0.115 µM) | 0.25 µg/mL (≈ 0.48 µM) | 0.06 µg/mL (≈ 0.115 µM) | 4 µg/mL (≈ 7.68 µM) | 0.06 µg/mL (≈ 0.115 µM) | 8 µg/mL (≈ 15.4 µM) | 32 µg/mL (≈ 61.5 µM) | 4 µg/mL (≈ 7.68 µM) | 2 µg/mL (≈ 3.84 µM) | 0.06 µg/mL (≈ 0.115 µM) | 0.125 µg/mL (≈ 0.24 µM) | 0.06 µg/mL (≈ 0.115 µM) | 32 µg/mL (≈ 61.5 µM)
7 | CO/N=C(\C(=O)N[C@@H]1C(=O)N2C(C(=O)[O-])=C(C[n+]3ccc4cnccc4c3)CS[C@H]12)c1csc(N)n1 |  |  |  | 2 µg/mL (≈ 3.81 µM) | < 0.008 µg/mL | 0.03 µg/mL (≈ 0.0571 µM) | < 0.008 µg/mL | 2 µg/mL (≈ 3.81 µM) | < 0.008 µg/mL | 2 µg/mL (≈ 3.81 µM) | 2 µg/mL (≈ 3.81 µM) | 1 µg/mL (≈ 1.9 µM) | 1 µg/mL (≈ 1.9 µM) | < 0.008 µg/mL | 0.03 µg/mL (≈ 0.0571 µM) | < 0.008 µg/mL | 32 µg/mL (≈ 60.9 µM)
8 | CO/N=C(\C(=O)N[C@@H]1C(=O)N2C(C(=O)[O-])=C(C[n+]3ccc4cncnc4c3)CS[C@H]12)c1csc(N)n1 |  |  |  | 16 µg/mL (≈ 30.4 µM) | 0.25 µg/mL (≈ 0.475 µM) | 1 µg/mL (≈ 1.9 µM) | 0.125 µg/mL (≈ 0.237 µM) | 16 µg/mL (≈ 30.4 µM) | 0.125 µg/mL (≈ 0.237 µM) | 32 µg/mL (≈ 60.8 µM) | 64 µg/mL (≈ 122 µM) | 32 µg/mL (≈ 60.8 µM) | 4 µg/mL (≈ 7.6 µM) | 0.03 µg/mL (≈ 0.057 µM) | 1 µg/mL (≈ 1.9 µM) | 0.06 µg/mL (≈ 0.114 µM) | 128 µg/mL (≈ 243 µM)
9 | CO/N=C(\C(=O)N[C@@H]1C(=O)N2C(C(=O)[O-])=C(C[n+]3csc(CCOC(C)=O)c3C)CS[C@H]12)c1csc(N)n1 |  |  |  | 2 µg/mL (≈ 3.44 µM) | 0.03 µg/mL (≈ 0.0517 µM) | 0.125 µg/mL (≈ 0.215 µM) | 0.03 µg/mL (≈ 0.0517 µM) | 8 µg/mL (≈ 13.8 µM) | 0.015 µg/mL (≈ 0.0258 µM) | 32 µg/mL (≈ 55.1 µM) | 64 µg/mL (≈ 110 µM) | 4 µg/mL (≈ 6.89 µM) | 2 µg/mL (≈ 3.44 µM) | 0.015 µg/mL (≈ 0.0258 µM) | 0.125 µg/mL (≈ 0.215 µM) | 0.015 µg/mL (≈ 0.0258 µM) | 32 µg/mL (≈ 55.1 µM)
